System: A549 cells
Test: Matrix-Invasion assay (Matrigel)
Assay type: cell-based, human
Settings: 10 μmol/L, 48±4 hours, significance level less than 5%
Experimental: As a second test for determining whether or not the physiological function of cells induced by the OPN production is inhibited with a test compound, Matrix-Invasion assay was performed. In this assay, cups (inserts) whose bottom was covered with a membrane having φ8 μm pores coated with collagen or laminin (Matrigel, BD Bioscience) that is an extracellular matrix component and a 24-well plate for inserting the inserts were prepared. […]
Specifically, a fluorescent dye was introduced into A549 cells invading outside the membrane, and then the cells were separated from the membrane to measure their fluorescence intensity. At the same time, a fluorescent dye was introduced into a known number of cells for preparing a calibration curve, and a calibration curve was prepared from their fluorescence intensity. Then, the number of invading cells of a test sample containing an unknown number of cells was determined from the fitted curve. […]
The cells of human non-small cell lung cancer-derived cell line A549 were suspended in DMEM medium containing 10% FCS and 1% P/S at 1.8×10^5 cells/mL to obtain a cell suspension. […] This day was counted as Day 0 of operation. […]

COc1ccc(Oc2cccc(C(=O)CCNC(=O)c3ccc(O)cc3)c2N)cc1 [Compound 6, N-(3-(2-Amino-3-(4-methoxyphenoxy)phenyl)-3-oxopropyl)-4-hydroxybenzamide]
number of invading cells vs control group: significantly inhibited

Source: US11040937B2, “Amide derivative” (TOHOKU UNIVERSITY, priority 2014, dated 2021)
